Here are results for seven compounds from patent US20120029075A1, “COMPOSITIONS CONTAINING C1 TO C7 ORGANIC ACID MONOGLYCERIDES AND GLYCEROL, THEIR PREPARATION AND USE AS ANTIBACTERIALS AND ANTI-MOULD AGENTS” (priority 2009, published 2012).

Read-outs that look alike come from different tables or passages of the source.

Test [1] relates to Porcine Salmonella typhimurium. Briefly: In vitro antibacterial action, appearance of growth in Brain Heart Infusion, pH 6 (Tables 3 and 4). Format: cell-based. Conditions: for Incubation time and appearance of growth: pH 6, inoculation 10^5, Brain Heart Infusion, 3 replications; for Concentration exhibiting inhibitory potency (no growth) in all three replicates: porcine Salmonella typhimurium, tested 5000-40000 ppm.

Test [2] concerns Clostridium perfringens CP27. The class given is cell-based. The note with it: for Incubation time and appearance of growth: inoculation 10^5, Brain Heart Infusion, 3 replications; for Concentration exhibiting inhibitory potency (no growth) in all three replicates: Clostridium perfringens, tested 500-4000 ppm.
Test [3] deals with E. coli. Briefly: In vitro antibacterial action, appearance of growth in Brain Heart Infusion, pH 5 (Table 5). The note with it: for Incubation time and appearance of growth: pH 5, inoculation 10^5, Brain Heart Infusion, 3 replications.
Test [4] deals with E. coli. Briefly: Antibacterial potency (Table 1), E. coli count. The class given is cell-based.
Another test concerns Campylobacter jejuni. Briefly: Antibacterial potency (Table 1), Campylobacter jejuni count.
The subject of a further test is Salmonella typhimurium. Briefly: Antibacterial potency (Table 1), Salmonella typhimurium count.
A further test deals with Aspergillus spp. Briefly: In vitro sensitivity test towards filamentous fungi (Example 5), Aspergillus. The class given is cell-based. Conditions: 5 ml fungal suspension + 5 ml product, 24 hours at 20±4° C.; read after 5 days; control 450000. As for the experimental part:
(§1) In Vitro Sensitivity Tests towards Filamentous Fungi (Moulds)
(§2) Strains of Aspergillus spp, Penicillium spp and Fusarium spp were utilized for the test, having been isolated and identified during diagnostic activity at the IZSLER section of Forli from complete feeds used in the chicken industry. To prepare the inoculum, mycelium of pure cultures of the tested strains was collected using a swab. The material thus collected was dissolved in a culture broth (BHI—Brain Heart Infusion). 5 ml of the fungal suspension and an equal amount of the product to be tested were placed in contact in a test tube. The test tube was incubated at 20±4° C. for 24 hours.
(§3) After this time period, the fungal suspension was then seeded and enumerated.
(§4) The control suspension was obtained by placing 5 ml of fungal suspension+5 ml of diluent (Ringer's lactate) into a test tube. Reading of the tests was carried out after a 5 day incubation period at 20±4° C.

The subject of the next test is Penicillium spp. Briefly: In vitro sensitivity test towards filamentous fungi (Example 5), Penicillium. Format: cell-based. The note with it: 5 ml fungal suspension + 5 ml product, 24 hours at 20±4° C.; read after 5 days; control 97000. Here is the method:
as §1, §2, §3, §4

The next test relates to Fusarium spp. Briefly: In vitro sensitivity test towards filamentous fungi (Example 5), Fusarium. The class given is cell-based. Conditions: 5 ml fungal suspension + 5 ml product, 24 hours at 20±4° C.; read after 5 days; control 310000. Here is the method: as §1, §2, §3, §4
[5] abbreviates: pH 4.5, conc. used: Propionic acid 1:909, Butyric Acid 1:1000, Monobutyrin 43 1:100.
The mark [6] stands for this setting: pH 7, conc. used: Propionic acid 1:909, Butyric Acid 1:1000, Monopropionin 43 1:109, Monobutyrin 43 1:100.

Regarding Formic acid monoglycerides, the “Incubation time and appearance of growth” value in test [1] (5000 ppm, Table 4) was “+ (+ for 24 hr)”; in [1] (10000 ppm, Table 4), “+ (+ for 24 hr)”; in [1] (15000 ppm, Table 4), “+ (+ for 24 hr)”; in test [1] (20000 ppm, Table 4) it was “+ (+ for 24 hr)”; in test [1] (25000 ppm, Table 4), “no growth”; in [1] (30000 ppm, Table 4) it was “no growth”. Moreover, the “Incubation time and appearance of growth” value in [1] (40000 ppm, Table 4) was “no growth”. The “Concentration exhibiting inhibitory potency (no growth) in all three replicates” value in [1] (formic acid series) was ≥ 25,000 ppm.
For Butyric acid monoglycerides, the “Incubation time and appearance of growth” value in [2] (500 ppm), in test [2] (1000 ppm), in test [2] (1500 ppm), in test [2] (2000 ppm), in test [2] (2500 ppm) and in test [2] (3000 ppm) was “+ (+ for 24 hr)” in each case. Also, the “Incubation time and appearance of growth” value in test [2] (4000 ppm) was “+ (+ for 24 hr)”. For the same compound, the “Concentration exhibiting inhibitory potency (no growth) in all three replicates” value in test [2] was “do not exhibit any inhibitory potency”.
For `O=C(O)/C=C/C(=O)O` [Fumaric acid], the “Incubation time and appearance of growth” value is given as “+ (+ for 24 hr)” with E. coli [3] (10000 ppm); “+ (+ for 24 hr)” in the test with E. coli [3] (20000 ppm); “+ (+ for 24 hr)” in the test with E. coli [3] (40000 ppm); “++ (++ for 37 hr)” with E. coli [3] (60000 ppm); “++ (++ for 37 hr)” with E. coli [3] (80000 ppm); “no growth” in the test on E. coli [3] (90000 ppm). The “Incubation time and appearance of growth” value with E. coli [3] (100000 ppm) is “no growth”. The “Concentration exhibiting inhibitory potency (no growth) in all three replicates” value in the test with E. coli [3] (E. coli, tested 10000-100000 ppm) was ≥ 90,000 ppm.
Consider `CCCC(=O)O` [Butyric Acid], for which the results for the “E. coli (cfu/ml)” value in the test with E. coli [4] (setting [5]) and with E. coli [4] (setting [6]) were 78 × 10^4 cfu/ml and 106 × 10^4 cfu/ml, respectively. Besides, the “Incubation time and appearance of growth” value in test [2] (500 ppm) is recorded as “+ (+ for 24 hr)”; in [2] (1000 ppm) it was “+ (+ for 24 hr)”; in test [2] (1500 ppm) it was “+ (+ for 24 hr)”; in [2] (2000 ppm), “++ (++ for 37 hr)”; in test [2] (2500 ppm), “++ (++ for 37 hr)”; in test [2] (3000 ppm), “no growth”. In addition, the “Incubation time and appearance of growth” value in test [2] (4000 ppm) is on record as “no growth”. Further, in test [2], the “Concentration exhibiting inhibitory potency (no growth) in all three replicates” value is listed as at least 3000 ppm. Also, the “Campylobacter jejuni (cfu/ml)” value in the test with Campylobacter jejuni (setting [5]) is 2 × 10^1 cfu/ml; in the test on Campylobacter jejuni (setting [6]), 18 × 10^3 cfu/ml. The results for the “Salmonella typhimurium (cfu/ml)” value in the test with Salmonella typhimurium (setting [5]) and in the test on Salmonella typhimurium (setting [6]) were 25 × 10^3 cfu/ml and 65 × 10^4 cfu/ml, respectively.
As for `CCC(=O)O` [Propionic acid], the results for the “E. coli (cfu/ml)” value in the test with E. coli [4] (setting [5]) and in the test on E. coli [4] (setting [6]) were 13 × 10^4 cfu/ml and 54 × 10^4 cfu/ml, respectively. In addition, in the test on Aspergillus spp, the ASPERGILLUS spp. count was determined as 300 cfu/ml. The PENICILLIUM spp. count in the test on Penicillium spp was under 100 cfu/ml. In addition, in the test with Fusarium spp, the FUSARIUM spp. count is reported as 300 cfu/ml. Moreover, the “Campylobacter jejuni (cfu/ml)” value in the test with Campylobacter jejuni (setting [5]) is on record as 14 × 10^1 cfu/ml; in the test on Campylobacter jejuni (setting [6]) it was 33 × 10^3 cfu/ml. For the same compound, the “Salmonella typhimurium (cfu/ml)” value is recorded as 42 × 10^3 cfu/ml in the test with Salmonella typhimurium (setting [5]) and 11 × 10^4 cfu/ml in the test on Salmonella typhimurium (setting [6]).
With `CC(=O)O` [Acetic acid], the “Incubation time and appearance of growth” value is listed as “+ (+ for 24 hr)” in test [1] (5000 ppm, Table 3); “+ (+ for 24 hr)” in [1] (10000 ppm, Table 3); “+ (+ for 24 hr)” in [1] (15000 ppm, Table 3); “no growth” in test [1] (20000 ppm, Table 3); “no growth” in test [1] (25000 ppm, Table 3); “no growth” in test [1] (30000 ppm, Table 3). Moreover, the “Incubation time and appearance of growth” value in test [1] (40000 ppm, Table 3) is on record as “no growth”. Also, the “Concentration exhibiting inhibitory potency (no growth) in all three replicates” value in test [1] (acetic acid series) is ≥ 20,000 ppm.
Turning to `CCC(=O)O.N` [Ammonium propionate], in the test with Aspergillus spp, the ASPERGILLUS spp. count turned out to be 1000 cfu/ml. Further, the PENICILLIUM spp. count in the test with Penicillium spp turned out to be 100 cfu/ml. The FUSARIUM spp. count in the test on Fusarium spp was 500 cfu/ml.
